{"source": "patent EP1147767A1", "about": "(J.B. Chemicals & Pharmaceuticals Ltd., priority 2000, dated 2001)", "origin": "cited, not measured here", "key": {"[1]": {"settings": "rats; comparison with other drugs"}, "[2]": {"settings": "animal model; comparison with other NSAIDs"}, "[3]": {"settings": "200 mg/day; respiratory tract infections, ENT disorders, dysmenorrhoea, dental surgery, urogenital tract disorders, musculoskeletal injuries"}, "[4]": {"settings": "200mg 3 times daily, rectally; Ramella et al. 1993"}, "[5]": {"settings": "200 mg twice daily, rectally; Coscarelli et al. 1993"}, "[6]": {"settings": "200 mg twice daily; Pierleoni et al. 1993"}, "[7]": {"settings": "200 mg twice daily, granular formulation; versus naproxen 500 mg twice daily; Toscani et al. 1993"}}, "data": [{"smiles": "CS(=O)(=O)Nc1ccc([N+](=O)[O-])cc1Oc1ccccc1", "note": "[Nimesulide, 4'-Nitro-2'-phenoxymethanesulphonanilide]", "values": [{"measurement": "antipyretic potency", "setting": "[1]", "value": "superior antipyretic potency to indomethacin, ibuprofen, aspirin and paracetamol"}, {"measurement": "ulcerogenic", "setting": "[2]", "value": "less ulcerogenic than aspirin, indomethacin, naproxen, piroxicam and ibuprofen"}, {"measurement": "reducing clinical symptoms", "setting": "[3]", "value": "generally more effective than the usual therapeutic doses of naproxen, ibuprofen, ketoprofen mefenamic acid and suprofen"}, {"measurement": "adverse reaction", "setting": "[4]", "value": "no adverse reaction"}, {"measurement": "pain, oedema, hyperaemia and fever", "setting": "[4]", "value": "significantly less pain, oedema and hyperaemia and resolution of mild fever"}, {"measurement": "relief of pain", "setting": "[5]", "value": "gave relief in the pain associated with postoperative inflammatory complications of ear, nose and throat surgery"}, {"measurement": "relief", "setting": "[6]", "value": "gave relief"}, {"measurement": "analgesic efficacy (pain)", "setting": "[7]", "value": "similarly reduced pain with naproxen 500 mg twice daily"}]}]}
